{"source": "patent US8492310B2", "about": "“Herbicidal compositions containing benzoylpyrazole compounds” (priority 2008, dated 2013)", "type_in_all_cases": "in vivo", "key": {"[1]": {"test_system": "crabgrass (Digitaria sanguinalis L.)", "assay": "Foliar treatment pot test, visual growth inhibition rate, crabgrass (DS)", "details": "Digitaria sanguinalis, foliar", "how_it_was_run": "(§1)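 Seeds were sown in upland soil pots, and plants were sprayed on the foliage at a predetermined leaf stage with herbicidal compositions diluted in water at 300 L/ha. Growth inhibition was rated visually. Expected combination activity was calculated by Colby's formula to assess synergy.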"}, "[2]": {"test_system": "giant foxtail (Setaria faberi Herrm.)", "assay": "Foliar treatment pot test, visual growth inhibition rate, giant foxtail (SF)", "details": "336 h, read-out: Growth inhibition rate (%) of SF Measured value", "source_text": "(§2) When the herbicidal activity in a case where two active ingredients are combined, is larger than the simple sum of the respective herbicidal activities of the two active ingredients (the expected activity), it is called a synergistic effect. The activity expected by the combination of two active ingredients can be calculated as follows (Colby S. R., “Weed”, vol. 15, p. 20-22, 1967). E=α+β−(α×β÷100) where\n(§3) Upland field soil was put into a 1/1,000,000 hectare pot, and seeds of various plants (barnyardgrass (Echinochloa crus-qalli L.), crabgrass (Digitaria sanguinalis L.), giant foxtail (Setaria faberi Herrm.), velvetleaf (Abutilon theophrasti MEDIC.) and prickly sida (Sida spinosa L.)) were sown. When the respective plants reached predetermined leaf stage, herbicidal compositions in predetermined amounts were diluted with water in an amount corresponding to 300 L/ha and applied for foliar treatment by a small sprayer.\n(§4) Further, in accordance with the above Colby's formula, the growth inhibition rate (calculated value) was calculated. In Tables, with respect to the compound Q, Compound Nos. in Table 1 are described, and with respect to other herbicidal compounds, common names are described. Further, in Tables, barnyardgrass is represented by “EC”, crabgrass by “DS”, giant foxtail by “SF”, velvetleaf by “AT”, and prickly sida by “SS”."}, "[3]": {"test_system": "velvetleaf (Abutilon theophrasti MEDIC.)", "assay": "Foliar treatment pot test, visual growth inhibition rate, velvetleaf (AT)", "how_it_was_run": "as §1"}, "[4]": {"test_system": "barnyardgrass (Echinochloa crus-qalli L.)", "assay": "Foliar treatment pot test, visual growth inhibition rate, barnyardgrass (EC)", "details": "504 h, 4.0-5.0 leaf stage, 21 DAT, read-out: Growth inhibition rate (%) of EC Measured value", "source_text": "as §2, §3, §4"}}, "note": "Where two headings read alike, the source gives them in different places.", "data": [{"smiles": "CCn1ncc(C(=O)c2ccc(S(C)(=O)=O)c(OCCOC)c2C)c1OC(C)OC(=O)OC", "note": "(centres unmarked) [NO. 4, 1-(1-ethyl-4-(3-(2-methoxyethoxy)-2-methyl-4-(methylsulfonyl)benzoyl)-1H-pyrazol-5-yloxy)ethyl methyl carbonate]", "values": [{"measurement": "inhibition at 7 g/ha", "setting": "[1]; 336 h, read-out: Growth inhibition rate (%) of DS Measured value, 5.0-5.5 leaf stage, 14 DAT, 7 g/ha", "value": 75, "unit": "%"}, {"measurement": "inhibition at 5 g/ha", "setting": "[1]; 480 h, read-out: Growth inhibition rate (%) of DS Measured value, 3.6-3.8 leaf stage, 20 DAT, 5 g/ha", "value": 40, "unit": "%"}, {"measurement": "inhibition at 10 g/ha", "setting": "[1]; 480 h, read-out: Growth inhibition rate (%) of DS Measured value, 3.6-3.8 leaf stage, 20 DAT, 10 g/ha", "value": 50, "unit": "%"}, {"measurement": "inhibition at 20 g/ha", "setting": "[1]; 480 h, read-out: Growth inhibition rate (%) of DS Measured value, 3.6-3.8 leaf stage, 20 DAT, 20 g/ha", "value": 73, "unit": "%"}, {"measurement": "inhibition at 5 g/ha", "setting": "[1]; 480 h, read-out: Growth inhibition rate (%) of DS Measured value, 3.7-4.0 leaf stage, 20 DAT, 5 g/ha", "value": 93, "unit": "%"}, {"measurement": "inhibition at 5 g/ha", "setting": "[1]; 480 h, read-out: Growth inhibition rate (%) of DS Measured value, 4.0-4.2 leaf stage, 20 DAT, 5 g/ha", "value": 40, "unit": "%"}, {"measurement": "inhibition at 10 g/ha", "setting": "[1]; 480 h, read-out: Growth inhibition rate (%) of DS Measured value, 4.0-4.2 leaf stage, 20 DAT, 10 g/ha", "value": 50, "unit": "%"}, {"measurement": "inhibition at 20 g/ha", "setting": "[1]; 480 h, read-out: Growth inhibition rate (%) of DS Measured value, 4.0-4.2 leaf stage, 20 DAT, 20 g/ha", "value": 73, "unit": "%"}, {"measurement": "inhibition at 5 g/ha", "setting": "[1]; 480 h, read-out: Growth inhibition rate (%) of DS Measured value, 4.5-5.2 leaf stage, 20 DAT, 5 g/ha", "value": 53, "unit": "%"}, {"measurement": "inhibition at 10 g/ha", "setting": "[1]; 480 h, read-out: Growth inhibition rate (%) of DS Measured value, 4.5-5.2 leaf stage, 20 DAT, 10 g/ha", "value": 89, "unit": "%"}, {"measurement": "inhibition at 10 g/ha", "setting": "[1]; 480 h, read-out: Growth inhibition rate (%) of DS Measured value, 5.0-5.2 leaf stage, 20 DAT, 10 g/ha", "value": 93, "unit": "%"}, {"measurement": "inhibition at 20 g/ha", "setting": "[1]; 480 h, read-out: Growth inhibition rate (%) of DS Measured value, 5.0-5.2 leaf stage, 20 DAT, 20 g/ha", "value": 98, "unit": "%"}, {"measurement": "inhibition at 5 g/ha", "setting": "[1]; 480 h, read-out: Growth inhibition rate (%) of DS Measured value, 5.1-5.2 leaf stage, 20 DAT, 5 g/ha", "value": 48, "unit": "%"}, {"measurement": "inhibition at 10 g/ha", "setting": "[1]; 480 h, read-out: Growth inhibition rate (%) of DS Measured value, 5.1-5.2 leaf stage, 20 DAT, 10 g/ha", "value": 73, "unit": "%"}, {"measurement": "inhibition at 5 g/ha", "setting": "[1]; 504 h, read-out: Growth inhibition rate (%) of DS Measured value, 4.0-5.1 leaf stage, 21 DAT, 5 g/ha", "value": 75, "unit": "%"}, {"measurement": "inhibition at 20 g/ha", "setting": "[1]; 528 h, read-out: Growth inhibition rate (%) of DS Measured value, 4.8-5.5 leaf stage, 22 DAT, 20 g/ha", "value": 94, "unit": "%"}, {"measurement": "inhibition at 7 g/ha", "setting": "[1]; 552 h, read-out: Growth inhibition rate (%) of DS Measured value, 4.0-5.1 leaf stage, 23 DAT, 7 g/ha", "value": 80, "unit": "%"}, {"measurement": "inhibition at 10 g/ha", "setting": "[1]; 552 h, read-out: Growth inhibition rate (%) of DS Measured value, 4.5-5.3 leaf stage, 23 DAT, 10 g/ha", "value": 87, "unit": "%"}, {"measurement": "inhibition at 20 g/ha", "setting": "[1]; 552 h, read-out: Growth inhibition rate (%) of DS Measured value, 4.5-5.3 leaf stage, 23 DAT, 20 g/ha", "value": 99, "unit": "%"}, {"measurement": "inhibition at 7 g/ha", "setting": "[2]", "value": 75, "unit": "%"}, {"measurement": "Growth inhibition rate (%) of AT Measured value", "setting": "[3]; 3.0-4.0 leaf stage, 14 DAT, 15 g/ha", "value": 80, "unit": "%"}, {"measurement": "Growth inhibition rate (%) of AT Measured value", "setting": "[3]; 4.0-4.2 leaf stage, 20 DAT, 20 g/ha", "value": 98, "unit": "%"}, {"measurement": "Growth inhibition rate (%) of AT Measured value", "setting": "[3]; 4.2-4.3 leaf stage, 20 DAT, 5 g/ha", "value": 58, "unit": "%"}, {"measurement": "Growth inhibition rate (%) of AT Measured value", "setting": "[3]; 4.2-4.3 leaf stage, 20 DAT, 10 g/ha", "value": 65, "unit": "%"}, {"measurement": "inhibition at 7 g/ha", "setting": "[3]; Abutilon theophrasti, foliar, 336 h, read-out: Growth inhibition rate (%) of AT Measured value, 3.0-4.0 leaf stage, 14 DAT, 7 g/ha", "value": 70, "unit": "%"}, {"measurement": "inhibition at 5 g/ha", "setting": "[3]; Abutilon theophrasti, foliar, 480 h, read-out: Growth inhibition rate (%) of AT Measured value, 4.0-4.2 leaf stage, 20 DAT, 5 g/ha", "value": 48, "unit": "%"}, {"measurement": "inhibition at 10 g/ha", "setting": "[3]; Abutilon theophrasti, foliar, 480 h, read-out: Growth inhibition rate (%) of AT Measured value, 4.0-4.2 leaf stage, 20 DAT, 10 g/ha", "value": 73, "unit": "%"}, {"measurement": "inhibition at 5 g/ha", "setting": "[3]; Abutilon theophrasti, foliar, 480 h, read-out: Growth inhibition rate (%) of AT Measured value, 4.1-4.2 leaf stage, 20 DAT, 5 g/ha", "value": 55, "unit": "%"}, {"measurement": "inhibition at 10 g/ha", "setting": "[3]; Abutilon theophrasti, foliar, 480 h, read-out: Growth inhibition rate (%) of AT Measured value, 4.1-4.2 leaf stage, 20 DAT, 10 g/ha", "value": 63, "unit": "%"}, {"measurement": "inhibition at 10 g/ha", "setting": "[3]; Abutilon theophrasti, foliar, 480 h, read-out: Growth inhibition rate (%) of AT Measured value, 4.2-4.3 leaf stage, 20 DAT, 10 g/ha", "value": 63, "unit": "%"}, {"measurement": "inhibition at 20 g/ha", "setting": "[3]; Abutilon theophrasti, foliar, 480 h, read-out: Growth inhibition rate (%) of AT Measured value, 4.2-4.3 leaf stage, 20 DAT, 20 g/ha", "value": 70, "unit": "%"}, {"measurement": "inhibition at 5 g/ha", "setting": "[3]; Abutilon theophrasti, foliar, 504 h, read-out: Growth inhibition rate (%) of AT Measured value, 4.0-4.3 leaf stage, 21 DAT, 5 g/ha", "value": 35, "unit": "%"}, {"measurement": "inhibition at 10 g/ha", "setting": "[3]; Abutilon theophrasti, foliar, 504 h, read-out: Growth inhibition rate (%) of AT Measured value, 4.0-4.3 leaf stage, 21 DAT, 10 g/ha", "value": 60, "unit": "%"}, {"measurement": "inhibition at 5 g/ha", "setting": "[3]; Abutilon theophrasti, foliar, 504 h, read-out: Growth inhibition rate (%) of AT Measured value, AT 4.0-4.3 leaf stage, 21 DAT, active ingredient 5 g/ha", "value": 35, "unit": "%"}, {"measurement": "inhibition at 10 g/ha", "setting": "[3]; Abutilon theophrasti, foliar, 504 h, read-out: Growth inhibition rate (%) of AT Measured value, AT 4.0-4.3 leaf stage, 21 DAT, active ingredient 10 g/ha", "value": 60, "unit": "%"}, {"measurement": "inhibition at 5 g/ha", "setting": "[3]; Abutilon theophrasti, foliar, 528 h, read-out: Growth inhibition rate (%) of AT Measured value, 4.5-5.0 leaf stage, 22 DAT, 5 g/ha", "value": 40, "unit": "%"}, {"measurement": "inhibition at 10 g/ha", "setting": "[3]; Abutilon theophrasti, foliar, 528 h, read-out: Growth inhibition rate (%) of AT Measured value, 4.5-5.0 leaf stage, 22 DAT, 10 g/ha", "value": 50, "unit": "%"}, {"measurement": "inhibition at 20 g/ha", "setting": "[3]; Abutilon theophrasti, foliar, 528 h, read-out: Growth inhibition rate (%) of AT Measured value, 4.5-5.0 leaf stage, 22 DAT, 20 g/ha", "value": 90, "unit": "%"}, {"measurement": "inhibition at 5 g/ha", "setting": "[3]; Abutilon theophrasti, foliar, 552 h, read-out: Growth inhibition rate (%) of AT Measured value, 3.0-4.2 leaf stage, 23 DAT, 5 g/ha", "value": 75, "unit": "%"}, {"measurement": "inhibition at 10 g/ha", "setting": "[3]; Abutilon theophrasti, foliar, 552 h, read-out: Growth inhibition rate (%) of AT Measured value, 3.0-4.2 leaf stage, 23 DAT, 10 g/ha", "value": 90, "unit": "%"}, {"measurement": "inhibition at 20 g/ha", "setting": "[3]; Abutilon theophrasti, foliar, 552 h, read-out: Growth inhibition rate (%) of AT Measured value, 3.0-4.2 leaf stage, 23 DAT, 20 g/ha", "value": 95, "unit": "%"}]}, {"smiles": "CCCCCCCCSC(=O)Oc1cc(Cl)nnc1-c1ccccc1", "note": "[Pyridate, pyridate]", "values": [{"measurement": "inhibition at 200 g/ha", "setting": "[1]; 528 h, 4.0-5.0 leaf stage, 22 DAT, 200 g/ha, read-out: Growth inhibition rate (%) of DS Measured value", "value": 0, "unit": "%"}, {"measurement": "inhibition at 100 g/ha", "setting": "[4]; 100 g/ha", "value": 0, "unit": "%"}, {"measurement": "inhibition at 100 g/ha", "setting": "[2]; 4.0-5.0 leaf stage, 14 DAT, 100 g/ha", "value": 0, "unit": "%"}, {"measurement": "inhibition at 200 g/ha", "setting": "[3]; Abutilon theophrasti, foliar, 336 h, 4.1-4.5 leaf stage, 14 DAT, 200 g/ha, read-out: Growth inhibition rate (%) of AT Measured value", "value": 30, "unit": "%"}]}, {"smiles": "COC(=O)c1sccc1S(=O)(=O)NC(=O)Nc1nc(C)nc(OC)n1", "note": "[Thifensulfuron-methyl]", "values": [{"measurement": "inhibition at 5 g/ha", "setting": "[4]; 5 g/ha", "value": 0, "unit": "%"}, {"measurement": "inhibition at 5 g/ha", "setting": "[2]; 4.0-5.0 leaf stage, 14 DAT, 5 g/ha", "value": 0, "unit": "%"}]}]}
